Results reported in patent US8343987B2, “Heterocyclic derivatives” (Bayer Intellectual Property GmbH, priority 2004, dated 2013).

target: T1, human neutrophil elastase (HNE) (Homo sapiens, UniProt P08246); test: In vitro inhibition of HNE using a fluorogenic peptide substrate (Example I-A); type: biochemical; details: substrate MeOSuc-Ala-Ala-Pro-Val-AMC, continuous read-out, 384 MTP format
T1 construct: purchased SERVA Electrophoresis GmbH, Heidelberg, Germany #20927.01
T1 sequence (P08246 30-267): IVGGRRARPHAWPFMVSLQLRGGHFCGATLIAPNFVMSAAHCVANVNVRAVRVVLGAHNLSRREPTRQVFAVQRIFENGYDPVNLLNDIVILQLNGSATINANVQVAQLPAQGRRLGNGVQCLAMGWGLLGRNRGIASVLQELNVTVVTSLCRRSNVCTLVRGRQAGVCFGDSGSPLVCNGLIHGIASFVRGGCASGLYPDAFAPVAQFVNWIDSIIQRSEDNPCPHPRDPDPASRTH
Experimental: The test solution is prepared by mixing 10 μl of test compound dilution, 20 μl of HNE enzyme dilution (final concentration 8-0.4 μU/ml, routinely 2.1 μU/ml) and 20 μl of substrate dilution (final concentration 1 mM-1 μM, routinely 20 μM), respectively. The solution is incubated for 0-2 hrs at 37° C. (routinely one hour). The fluorescence of the liberated AMC due to the enzymatic reaction is measured at 37° C. (TECAN spectra fluor plus plate reader). […] IC50 values are determined by RFU-versus-[I] plots. Km and Km(app.) values are determined by Lineweaver-Burk plots and converted to K1 values by Dixon plots.

Question: How did the IC50 turn out when `CC1=C(C#N)C(c2ccc(C#N)nc2)NC(=O)N1c1cccc(C(F)(F)F)c1` (stereo not shown) [Example 19A, 4-(6-Cyanopyridin-3-yl)-6-methyl-2-oxo-1-[3-(trifluoromethyl)phenyl]-1,2,3-,4-tetrahydro-pyrimidine-5-carbonitrile] was run?
Answer: Its IC50 is 70 nM.

Question: For `COC(=O)c1cccc(CN2C(=O)N(c3cccc(C(F)(F)F)c3)C(C)=C(C(C)=O)C2c2ccc(C#N)cc2)c1` (stereo not shown) [Example 1, Methyl 3-{[5-acetyl-6-(4-cyanophenyl)-4-methyl-2-oxo-3-[3-(trifluoromethyl-)phenyl]-3,6-dihydropyrimidin-1(2H)-yl]methyl}benzoate], which IC50 is on record?
Answer: The IC50 was 30 nM.

Question: With `CC1=C(C(=O)c2cccnc2)C(c2ccc(C#N)cc2)N(CC(=O)O)C(=O)N1c1cccc(C(F)(F)F)c1` (stereo not shown) [Example 31A, [6-(4-Cyanophenyl)-4-methyl-2-oxo-5-(pyridin-3-ylcarbonyl)-3-[3-(trifluoro-methyl)phenyl]-3,6-dihydropyrimidin-1(2H)-yl]acetic acid] as the compound, how does the IC50 read?
Answer: The IC50 was 10 nM.

Question: With `CC(=O)C1=C(C)N(c2cccc(C(F)(F)F)c2)C(=O)N(CC(=O)NS(=O)(=O)c2ccc(C#N)cc2)[C@@H]1c1ccc(C#N)cc1` [Example 74] as the compound, how does the IC50 read?
Answer: Its IC50 is 10 nM.

Question: How did the IC50 turn out when `CC(=O)C1=C(C)N(c2cccc(C(F)(F)F)c2)C(=O)N(/C=C/C(=O)O)C1c1ccc(C#N)cc1` (stereo not shown) [Example 24] was run?
Answer: The IC50 was 10 nM.

Question: `CC1=C(C(=O)c2cccnc2)C(c2ccc(C#N)cc2)N(CC(=O)NS(=O)(=O)CC(F)(F)F)C(=O)N1c1cccc(C(F)(F)F)c1` (stereo not shown) [Example 55, 2-[6-(4-Cyanophenyl)-4-methyl-2-oxo-5-(pyridin-3-ylcarbonyl)-3-[3-(trifluoromethyl)phenyl]-3,6-dihydropyrimidin-1(2H)-yl]-N-[(2,2,2-trifluoroethyl)sulfonyl]acetamide] was tested. Which IC50 did it give?
Answer: The IC50 was 20 nM.

Question: Which IC50 does the source give for `CC(=O)C1=C(C)N(c2cccc(C(F)(F)F)c2)C(=O)N(Cc2ccc(C(CC(C)C)C(=O)O)cc2)C1c1ccc(C#N)cc1` (stereo not shown) [Example 19] here?
Answer: The IC50 was 20 nM.

Question: `CC1=C(C(=O)c2cccnc2)C(c2ccc(C#N)cc2)NC(=O)N1c1cccc(C(F)(F)F)c1` (stereo not shown) [Example 21A, 4-{6-Methyl-2-oxo-5-(pyridin-3-ylcarbonyl)-1-[3-(trifluoromethyl)phenyl]-1-,2,3,4-tetrahydro-pyrimidin-4-yl}benzonitrile] was tested. Which IC50 did it give?
Answer: The IC50 was 60 nM.

Question: Which IC50 does the source give for `CC1=C(C(=O)c2ccco2)C(c2ccc(C#N)cc2)N(Cc2cccc(C(=O)O)c2)C(=O)N1c1cccc(C(F)(F)F)c1` (stereo not shown) [Example 44] here?
Answer: Its IC50 is 30 nM.

Question: Which IC50 does the source give for `C=CCOC(=O)C1=C(C)N(c2cccc(C(F)(F)F)c2)C(=O)N(C2(C(=O)OCC)CC2)C1c1ccc(C#N)cc1` (stereo not shown) [Example 61] here?
Answer: Its IC50 is 130 nM.

Question: With `CC(=O)C1=C(C)N(c2cccc(C(F)(F)F)c2)C(=O)N(Cc2ccc(C(=O)O)cc2)[C@@H]1c1ccc(C#N)cc1` [Example 22] as the compound, how does the IC50 read?
Answer: The IC50 was 8 nM.

Question: How did the IC50 turn out when `CC1=C(C(=O)c2ccco2)C(c2ccc(C#N)cc2)N(CC(=O)O)C(=O)N1c1cccc(C(F)(F)F)c1` (stereo not shown) [Example 29A, [6-(4-Cyanophenyl)-5-(2-furoyl)-4-methyl-2-oxo-3-[3-(trifluoromethyl)pheny-l]-3,6-dihydropyrimidin-1(2H)-yl]acetic acid] was run?
Answer: The IC50 was 20 nM.

Question: Which IC50 does the source give for `CC1=C(C(=O)O)C(c2ccc(C#N)cc2)N(Cc2cccc(/C=C/C(=O)O)c2)C(=O)N1c1cccc(C(F)(F)F)c1` (stereo not shown) [Example 39, 3-{3-[(E)-2-Carboxyvinyl]benzyl}-4-(4-cyanophenyl)-6-methyl-2-oxo-1-[3-(trifluoromethyl)-phenyl]-1,2,3,4-tetrahydropyrimidine-5-carboxylic acid] here?
Answer: Its IC50 is 120 nM.

Question: `C=CCOC(=O)C1=C(C)N(c2cccc(C(F)(F)F)c2)C(=O)N(CC(=O)NS(=O)(=O)c2ccc(C(F)(F)F)cc2)C1c1ccc(C#N)cc1` (stereo not shown) [Example 67] was tested. Which IC50 did it give?
Answer: Its IC50 is 70 nM.

system: human polymorphonuclear cells (PMNs); test: In vitro PMN elastolysis assay (Example II-A); type: cell-based; details: at 1.2 μM; mean±s.e.m.; n=3 different donors at 3.6×10^5 cells per well
Experimental: This assay is used to determine the elastolytic potential of human polymorphonuclear cells (PMNs) and assess the proportion of degradation due to neutrophil elastase [cf. Z. W. She et al., Am. J. Respir. Cell. Mol. Biol. 9386-392 (1993)].
Tritiated elastin, in suspension, is coated on to a 96 well plate at 10 μg per well. Test and reference [ZD-0892 (J. Med. Chem. 40, 1876-1885, 3173-3181 (1997), WO 95/21855) and α1 protease inhibitor (α1PI)] compounds are added to the wells at the appropriate concentrations. Human PMNs are separated from peripheral venous blood of healthy donors and resuspended in culture media. The neutrophils are added to the coated wells at concentrations ranging between […] cells per well. Porcine pancreatic elastase (1.3 μM) is used as a positive control for the assay, and α1PI (1.2 μM) is used as the positive inhibitor of neutrophil elastase. The cellular control is PMNs without compound at each appropriate cell density. The cells plus compounds are incubated in a humidified incubator at 37° C. for 4 hours. The plates are centrifuged to allow the harvest of cell supernatant only. The supernatant is transferred in 75 μl volumes to corresponding wells of a 96 well Lumaplate™ (solid scintillant containing plates). The plates are dried until no liquid is visible in the wells and read in a beta counter for 3 minutes per well. […]

Question: How did the “inhibition of 3H-elastin elastolysis” value turn out when “α1PI: α1 protease inhibitor, used as the positive inhibitor of neutrophil elastase” was run?
Answer: The value was 83.46±3.97%.

same assay, conditions: mean±s.e.m.; n=2 different donors at 3.6×10^5 cells per well

Question: With `COc1ccc(C(=O)N[C@H](C(=O)N2CCC[C@H]2C(=O)N[C@H](C(=O)C(F)(F)F)C(C)C)C(C)C)cc1` [ZD-0892] as the compound, how does the IC50 read?
Answer: Its IC50 is 45.5 ± 7.75 nM.
